Experiment [1] concerns Interleukin-1β-converting enzyme-like proteases (ILPs). Description: Fluorescent substrate (DEVD-AFC) assay for ILP activity in 293 cell extracts. The format is biochemical, human. As to conditions: for rate of ILP activation (dose response, free AFC generated per minute per milligram of extract): dialyzed S-100 extracts of 293 cells, various concentrations; for rate of ILP activation (dose response, free AFC generated per minute per milligram of extract) / free AFC (cleaved DEVD-AFC) generated in one minute by one milligram of extract: 60 minutes at 37° C.; for free AFC (cleaved DEVD-AFC) generated in one minute by one milligram of extract: 293 cell extracts, vanadate 5 mM, Granzyme B 2 U/ul added before shift. How it is done:
Interleukin-1β-converting enzyme-like proteases activity was measured by monitoring the cleavage of DEVD-AFC. This fluorogenic substrate DEVD-AFC consists of the peptide sequence (DEVD) which resembles the cleavage site in proteins that are degraded by ILPs, conjugated to amino-trifluoromethyl coumarin (AFC). When the peptide and the AFC molecule are attached the substrate is not fluorescent, when it is free it is fluorescent. […] The activated ILPs cleave the bond between the peptide and the AFC, resulting in increased fluorescence, which is detected using a fluorimeter. The assay is performed in a microtiter plate using the format essentially as described by Thomberry, N. A., Methods in Enzymology, 244:615-631 (1994). […] This period of time ranges from 0 to 90 minutes. During the preincubation period of a modulation assay, compounds that are to be assessed for their ability to activate or inhibit apoptosis are also introduced into the sample. Depending upon the purpose of the experiment the test compound may be present for the entire period of the preincubation or only a portion of the time. In order to measure the level of ILP activation 1 μl of extract is added to 200 μl of assay buffer (50 mM PIPES/KOH pH 7.0, 0.1 mM EDTA, 1 mM DTT, 10% glycerol) containing 20 μM DEVD-AFC (Enzyme Systems products). The release of free AFC was measured with a fluorescence plate reader, Cytofluor (Perspective Biosystems). The amount of fluorescence resulting from samples assayed in the presence and absence of potential modulatory compounds is compared to appropriate control samples and expressed as the number of free AFC molecules generated in one minutes by one milligram of cell extract.
Identifying agents that modulate the apoptotic machinery of 293 cellular extracts Dialyzed S-100 extracts of 293 cells were incubated for 60 minutes at 37° C. with various concentrations of either ATP, EDTA or sodium ortho-vanadate. ILP activity was then measured using the fluorogenic substrate assay. (FIGS. 8A-C).
To determine whether bcl-2 blocks ILP activation or inhibits the enzymatic activity of ILPs, bcl-2 was added to extracts either before or after incubation at 37° C. and monitored ILP activity by a quantitative enzymatic assay. Bc1-2 (40 μg/ml) was added to 293 extract either before incubation at 37° C. or after 15 minutes of the incubation (additions indicated by arrows). ILP activity against DEVD-AFC was measured as described above (FIG. 3).
As described below, the system described above can be used to screen for compounds that effect ILP activation. […] Vanadate (0.1, l and 5 mM) was added to extracts from 293 cells and the extracts then shifted to 37° C. and incubated for 30 minutes. The rate of DEVD-AFC proteolysis was then determined.
Vanadate (5 mM) was added to extracts either before 60 minutes incubation at 37° C. or after 60 minutes incubation. The extracts were then incubated for a further 60 minutes and the rate of DEVD-AFC proteolysis determined.
Extracts from 293 cells were incubated for 60 minutes at 37° C. Where indicated vanadate (5 mM), Granzyme B (2 U/ul ) or DEVD-CMK (10 μM) was added before the extract was shifted to 37° C. After 60 minutes the rate of DEVD-AFC proteolysis was determined. Data is representative of two experiments. In parallel, nuclei (1×10^7/ml) were incubated at 37° C. for 60 minutes with extracts treated with vanadate (5 mM), Granzyme B (2 U/ul) or DEVD-CMK (10 μM) where indicated. Nuclei were also incubated at 4° C. with extract or at 37° C. with Granzyme B but no extract.
Extracts were incubated at 37° C. and vanadate was added at the indicated times (arrows) to a final concentration of 5 mM. The rate of DEVD-AFC proteolysis in untreated extract (closed symbols) or vanadate treated extracts (open symbols) was measured at the indicated times. Data is representative of three experiments.

Another experiment has as its system Jurkat cells. The experiment in a line: Apoptotic nuclear morphology (DAPI) in intact Jurkat cells. The format is cell-based. As to conditions: etoposide 50 μM. How it is done: (§1) Intact cells or isolated nuclei were fixed with 4% paraformaldehyde, stained with DAPI (1μg/ml) and examined by fluorescence microscopy. The percentage of cells showing apoptotic nuclear morphology was determined. Images were acquired using a Photometrics PXL CCD camera (Photometrics Ltd) controlled by Oncor Image software (Oncor Inc.). Figures were prepared using Adobe Photoshop software. Jurkat cells (1×10^5/ml) (FIG. 1A) or 293 cells (1×10^5/ml) (FIG. 1B) were incubated with or without etoposide (50 μM). Cells were fixed at the indicated times and stained with DAPI. The percentage of cells with apoptotic nuclear morphology was determined. Samples were also taken to assess ILP activation.

In experiment [2] the test system is ICE-like proteases (ILPs) in Jurkat cells. The experiment in a line: Affinity labeling of active ILPs in Jurkat cells. The format is cell-based. As to conditions: Jurkat cells treated with etoposide. How it is done: (§2) Cells (2×10^6) were centrifuged (200 g, 5 minutes) and resuspended in […] MDB containing 10 μM biotinylated YVAD.AMK (plus protease inhibitors and […] cytochalasin B) and lysed by freeze/thawing for three cycles. The lysate was centrifuged (16,000 g, 20 minutes, 4° C.) and the supernatant incubated at 37° C. for 4 minutes to label active ILPs. The protein concentration was determined (Bradford assay), an equal volume of 2×SDS sample buffer added and the sample boiled for 5 minutes.
(§3) Extracts were mixed with an equal volume of MDB containing 20 μM biotinylated YVAD.AMK and incubated at 37° C. for 4 minutes to label active ILPs. Labeling was stopped by adding an equal volume of 2×SDS sample buffer and samples were subjected to 15% SDS-PAGE. Proteins were transferred to a PVDF Immobilon P^SQ membrane (Millipore Corp.) and the membrane washed (methanol, 5 minutes) and dried (80° C., 15 minutes). The blot was incubated with avidin (1 μg/ml) followed by Biotin-horse radish peroxidase (0.05 μg/ml), and labeled proteins detected by ECL (Amersham Inc.).
(§4) To avoid relying solely on the morphological manifestations of apoptosis, whether activation of ILPs, a biochemical hallmark of apoptosis, occurred in 293 cells treated with etoposide was also determined. Jurkat cells (2×10^6) or 293 cells (2×10^6) were incubated with biotin-YVAD-AMK, an affinity probe that labels active ILPs.

Experiment [3] has as its system ICE-like proteases (ILPs) in 293 cells. Description: Affinity labeling of active ILPs in 293 cells. It is filed as cell-based, human. Particulars: 293 cells treated with etoposide. The procedure: as §2, §3, §4
Another experiment deals with 293 cells. Description: Apoptotic nuclear morphology (DAPI) in intact 293 cells. The format is cell-based, human. Particulars: etoposide 50 μM. The procedure: as §1
The subject of experiment [4] is apoptotic machinery of 293 cell extracts. The experiment in a line: In vitro apoptosis of isolated HeLa nuclei in 293 cell extracts. Further details: species or system human. How it is done: Extracts were prepared essentially as described (Lazebnik, Y. A., et al., J. Cell. Biol., 123:7-22 (1993)). 293 cells (5-7×10^5 cells/ml)were washed and gently resuspended in 10× pellet volumes of extract preparation buffer (50 mM PIPES pH 7.0, 50 mM KCl, 5 mM EGTA, 2mM MgCl2, 1 mM DTT) plus 0.1 mM PMSF, 10 μg/ml cytochalasin B and 2 μg/ml each of chymostatin, pepstatin, leupeptin and antipain. Cells were immediately centrifuged (200 g, 5 minutes) and lysed by three cycles of freeze/thawing with liquid nitrogen. The lysate was centrifuged at 100,000 g for two hours, giving a cell extract. […]
Intact cells or isolated nuclei were fixed with 4% paraformaldehyde, stained with DAPI (1μg/ml) and examined by fluorescence microscopy. The percentage of cells showing apoptotic nuclear morphology was determined. […]
293 cell extracts (10 μl) were incubated with isolated HeLa nuclei (1×10^5) for 60 minutes at 37° C. either alone or with biotin-YVAD-AMK (100 μM), an inhibitor of ILPs. After incubation aliquots of the reaction were fixed, stained with DAPI and examined by fluorescence microscopy.
Extracts from E1A/E1B transformed MEFs or 293 cells (10 μl) were incubated with bcl-2 (40 μg/ml) for 10 minutes at 37° C. prior to further incubation with HeLa nuclei (1×10^5) for 60 minutes. Nuclei were fixed, stained with DAPI and examined by fluorescence microscopy. […]

Experiment [5] has as its system ICE-like proteases (ILPs), cpp32. Description: Affinity labeling of ILPs and cpp32 immunoblotting in 293 cell extracts. It is filed as biochemical, human. As to conditions: Granzyme B added to 293 extracts treated with vanadate. How it is done: as §3
Affinity blots were re-probed to detect cpp32. These membranes were soaked in methanol for 5 minutes to inactivate horseradish peroxidase, dried and re-probed with a monoclonal antibody to cpp32 (Transduction Laboratories) followed by incubation with a secondary antibody conjugated to horseradish peroxidase. The antigen-antibody complex was detected by ECL (Amersham Inc).
Prevention of apoptosis was achieved only if extracts were pre-incubated with bcl-2 before addition of nuclei. […] The same extracts were incubated alone, with buffer or with bcl-2 (40 μg/ml) for 70 minutes at 37° C. and active ILPs labeled with biotin YVAD.AMK (10 μM). Samples were subjected to 15% SDS-PAGE, transferred to a PVDF membrane and labeled ILPs visualized by ECL.
In general terms: A western blot detects proteins with antibodies after separation by electrophoresis.

As to `Nc1ncnc2c1ncn2[C@@H]1O[C@H](COP(=O)(O)OP(=O)(O)OP(=O)(O)O)[C@@H](O)[C@H]1O` [ATP], the “rate of ILP activation (dose response, free AFC generated per minute per milligram of extract)” value in experiment [1] is recorded as “increases the rate of ILP activation”.

For `O=C(O)CN(CCN(CC(=O)O)CC(=O)O)CC(=O)O` [EDTA], in experiment [1], the “rate of ILP activation (dose response, free AFC generated per minute per milligram of extract)” value is on record as “decreases the rate of ILP activation”.

For the compound `COc1cc([C@@H]2c3cc4c(cc3[C@@H](O[C@@H]3O[C@@H]5CO[C@@H](C)O[C@H]5[C@H](O)[C@H]3O)[C@H]3COC(=O)[C@H]23)OCO4)cc(OC)c1O` [etoposide], the figures for the “induction of apoptotic morphology” value with Jurkat cells and in the experiment on 293 cells were “sufficient to kill Jurkat cells” and “no morphological signs of apoptosis”, respectively. The “active ILPs detected by biotin-YVAD-AMK affinity labeling” value in experiment [2] is listed as “multiple active ILPs were detected”; in experiment [3], “No active ILPs were detected”.

Turning to `[Na+].[Na+].[Na+].[O]=[V]([O-])([O-])[O-]` [vanadate, sodium ortho vanadate], in experiment [1], the “free AFC (cleaved DEVD-AFC) generated in one minute by one milligram of extract” value stood at 1.4 pmol/min and the “rate of ILP activation (dose response, free AFC generated per minute per milligram of extract)” value is listed as “decreases the rate of ILP activation”. In experiment [1] (vanadate 5 mM added after 60 minutes incubation at 37° C. (ILPs already active), further 60 minutes), the “ILP activity (rate of DEVD-AFC proteolysis)” value is reported as “had no effect on ILP activity”. Moreover, in experiment [1] (vanadate 5 mM added at different times after shift of 293 extract to 37° C.), the “process of ILP activation (rate of DEVD-AFC proteolysis)” value is listed as “arrested the process of ILP activation irrespective of when it was added”. In addition, the “inhibition of ILP activation” value in experiment [1] (vanadate 5 mM added before shift to 37° C., all extracts) is reported as “complete inhibition”. Further, the “rate of DEVD-AFC proteolysis” value in experiment [1] (vanadate 0.1, 1 and 5 mM added before shifting 293 extract to 37° C., 30 minutes) is on record as “inhibited cleavage of DEVD-AFC”.

In the case of “Granzyme B: a serine protease which activates ILPs directly”, in experiment [1], the “free AFC (cleaved DEVD-AFC) generated in one minute by one milligram of extract” value was 0 pmol/min. For the same compound, the “effect on vanadate inhibition of ILP activity” value in experiment [1] (Granzyme B 2 U/ul added to 293 extracts treated with vanadate 5 mM) is recorded as “completely overcame vanadate inhibition”. Moreover, the “effect on vanadate inhibition of in vitro apoptosis (nuclei)” value in experiment [4] (Granzyme B 2 U/ul added to 293 extracts treated with vanadate 5 mM, nuclei 60 minutes at 37° C.) is given as “completely overcame vanadate inhibition”. Besides, the “ILP activation and cpp32 processing (affinity labeling, immuno-blotting)” value in experiment [5] was “resulted in ILP activation and cpp32 processing”.

As for “biotin-YVAD-acyloxymethylketone [biotin YVAD-amk]”, the “nuclear morphological changes of apoptosis in HeLa nuclei” value in experiment [4] (293 cell extract, inhibitor 100 μM, 60 minutes at 37° C.) is reported as “prevented the nuclear morphological changes of apoptosis”.
